Experimental data reported in ChEMBL document CHEMBL5291721, “A preclinical secondary pharmacology resource illuminates target-adverse drug reaction associations of marketed drugs” (Nat Commun, 2023).

Columns and labels:
[1] = biological target: 5-hydroxytryptamine receptor 2A (Homo sapiens, UniProt P28223)
[2] = biological target: T1, Gamma-aminobutyric acid receptor subunit alpha-1/alpha-2/beta-2/gamma-2 (Homo sapiens, UniProt P14867+P18507+P47869+P47870); assay type: functional, cell-based
[3] = biological target: T1, Gamma-aminobutyric acid receptor subunit alpha-1/alpha-2/beta-2/gamma-2; assay type: functional, cell-based; remark: listed apart in the source
[4] = biological target: T2, Androgen receptor (Rattus norvegicus, UniProt P15207); assay type: functional
T2 sequence (P15207 whole entry): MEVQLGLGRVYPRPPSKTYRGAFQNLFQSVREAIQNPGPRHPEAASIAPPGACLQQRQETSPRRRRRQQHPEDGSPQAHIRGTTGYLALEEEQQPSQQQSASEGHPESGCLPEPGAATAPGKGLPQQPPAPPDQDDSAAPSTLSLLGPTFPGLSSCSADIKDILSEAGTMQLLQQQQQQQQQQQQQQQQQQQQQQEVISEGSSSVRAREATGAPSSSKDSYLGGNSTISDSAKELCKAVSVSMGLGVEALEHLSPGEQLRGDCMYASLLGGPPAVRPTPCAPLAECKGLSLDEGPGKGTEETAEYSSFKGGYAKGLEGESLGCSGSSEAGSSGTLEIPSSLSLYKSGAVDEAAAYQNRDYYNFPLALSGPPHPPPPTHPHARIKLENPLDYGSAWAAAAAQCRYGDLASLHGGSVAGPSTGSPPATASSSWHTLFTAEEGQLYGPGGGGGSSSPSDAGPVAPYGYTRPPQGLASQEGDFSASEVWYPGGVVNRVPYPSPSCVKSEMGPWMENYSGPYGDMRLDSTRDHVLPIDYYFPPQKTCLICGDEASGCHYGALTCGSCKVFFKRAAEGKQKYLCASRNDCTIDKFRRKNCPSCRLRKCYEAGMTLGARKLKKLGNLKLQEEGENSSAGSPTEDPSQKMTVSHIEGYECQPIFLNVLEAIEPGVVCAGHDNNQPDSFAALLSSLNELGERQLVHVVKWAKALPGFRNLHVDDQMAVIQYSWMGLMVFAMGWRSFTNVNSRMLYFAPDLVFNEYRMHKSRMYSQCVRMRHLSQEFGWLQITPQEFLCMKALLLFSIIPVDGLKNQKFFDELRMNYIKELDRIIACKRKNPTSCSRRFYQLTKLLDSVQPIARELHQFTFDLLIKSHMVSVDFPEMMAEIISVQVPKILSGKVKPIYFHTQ

[5] = biological target: T3, Corticotropin-releasing factor receptor 1 (Homo sapiens, UniProt P34998)
T3 sequence (P34998 whole entry): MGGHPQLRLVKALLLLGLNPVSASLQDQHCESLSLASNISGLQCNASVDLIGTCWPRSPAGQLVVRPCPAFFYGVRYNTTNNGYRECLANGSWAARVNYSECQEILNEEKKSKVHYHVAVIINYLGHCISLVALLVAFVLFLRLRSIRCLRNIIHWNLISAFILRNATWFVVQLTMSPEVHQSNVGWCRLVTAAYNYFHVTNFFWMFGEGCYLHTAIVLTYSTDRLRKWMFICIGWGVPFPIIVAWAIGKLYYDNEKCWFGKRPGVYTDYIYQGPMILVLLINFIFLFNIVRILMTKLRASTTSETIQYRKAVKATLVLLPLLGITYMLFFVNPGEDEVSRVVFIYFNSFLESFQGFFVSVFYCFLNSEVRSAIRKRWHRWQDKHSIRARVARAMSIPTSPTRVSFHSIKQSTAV

[6] = biological target: T4, Gastric inhibitory polypeptide receptor (Homo sapiens, UniProt P48546)
T4 sequence (P48546 whole entry): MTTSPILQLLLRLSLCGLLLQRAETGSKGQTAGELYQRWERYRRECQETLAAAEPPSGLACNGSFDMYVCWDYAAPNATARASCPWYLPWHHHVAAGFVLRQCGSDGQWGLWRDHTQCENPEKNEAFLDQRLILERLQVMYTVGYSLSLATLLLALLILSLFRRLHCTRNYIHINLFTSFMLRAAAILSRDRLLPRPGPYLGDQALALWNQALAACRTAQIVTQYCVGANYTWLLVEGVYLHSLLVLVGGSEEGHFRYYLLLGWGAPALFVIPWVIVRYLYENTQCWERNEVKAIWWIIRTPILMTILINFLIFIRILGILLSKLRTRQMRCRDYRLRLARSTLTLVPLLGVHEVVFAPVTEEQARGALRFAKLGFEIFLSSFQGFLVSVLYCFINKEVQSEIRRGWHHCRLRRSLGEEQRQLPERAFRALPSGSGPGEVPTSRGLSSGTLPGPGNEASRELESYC

[7] = biological target: 5-hydroxytryptamine receptor 2B (Homo sapiens, UniProt P41595)
Chain of 5-hydroxytryptamine receptor 2B (P41595 whole entry): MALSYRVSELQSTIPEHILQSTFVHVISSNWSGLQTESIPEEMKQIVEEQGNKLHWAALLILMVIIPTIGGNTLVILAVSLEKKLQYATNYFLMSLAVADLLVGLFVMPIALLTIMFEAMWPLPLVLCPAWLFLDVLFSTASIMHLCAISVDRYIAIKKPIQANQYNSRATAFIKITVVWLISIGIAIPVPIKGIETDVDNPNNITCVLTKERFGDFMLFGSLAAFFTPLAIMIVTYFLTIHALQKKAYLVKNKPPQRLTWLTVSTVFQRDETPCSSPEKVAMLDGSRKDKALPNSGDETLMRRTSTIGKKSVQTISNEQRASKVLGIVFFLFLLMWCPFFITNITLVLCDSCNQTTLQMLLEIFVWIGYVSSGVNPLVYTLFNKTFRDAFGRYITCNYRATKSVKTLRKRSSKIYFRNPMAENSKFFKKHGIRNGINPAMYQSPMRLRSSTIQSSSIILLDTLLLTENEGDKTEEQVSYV

[8] = biological target: T2, Androgen receptor
[9] = biological target: T5, Alpha-1A adrenergic receptor (Homo sapiens, UniProt P35348)
T5 sequence (P35348 whole entry): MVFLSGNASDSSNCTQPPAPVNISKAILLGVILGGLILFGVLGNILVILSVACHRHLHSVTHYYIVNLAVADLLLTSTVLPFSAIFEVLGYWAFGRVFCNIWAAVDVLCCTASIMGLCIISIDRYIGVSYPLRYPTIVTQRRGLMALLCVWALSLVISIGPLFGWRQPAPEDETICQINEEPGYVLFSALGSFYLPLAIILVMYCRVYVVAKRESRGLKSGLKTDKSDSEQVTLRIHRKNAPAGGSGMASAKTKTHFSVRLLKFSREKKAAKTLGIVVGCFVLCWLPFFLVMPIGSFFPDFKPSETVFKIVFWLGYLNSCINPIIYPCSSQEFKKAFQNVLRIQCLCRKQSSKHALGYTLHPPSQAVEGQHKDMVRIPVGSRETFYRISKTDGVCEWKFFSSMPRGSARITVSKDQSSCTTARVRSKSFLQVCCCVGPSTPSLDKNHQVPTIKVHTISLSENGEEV
Note: assay procedure not described here.

T1 sequence (P14867 whole entry): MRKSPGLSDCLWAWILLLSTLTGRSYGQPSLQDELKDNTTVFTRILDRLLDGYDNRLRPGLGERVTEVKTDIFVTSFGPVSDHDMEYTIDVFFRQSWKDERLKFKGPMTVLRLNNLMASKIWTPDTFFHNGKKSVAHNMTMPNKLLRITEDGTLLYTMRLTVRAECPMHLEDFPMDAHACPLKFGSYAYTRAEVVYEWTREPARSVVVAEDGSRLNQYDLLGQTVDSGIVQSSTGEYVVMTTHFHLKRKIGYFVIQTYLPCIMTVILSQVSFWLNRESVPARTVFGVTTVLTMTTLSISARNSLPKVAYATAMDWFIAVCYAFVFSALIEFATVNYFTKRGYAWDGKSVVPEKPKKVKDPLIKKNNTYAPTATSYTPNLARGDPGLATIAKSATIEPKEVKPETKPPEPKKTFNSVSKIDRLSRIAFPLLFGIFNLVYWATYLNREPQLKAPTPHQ
T1 sequence (P47870 whole entry): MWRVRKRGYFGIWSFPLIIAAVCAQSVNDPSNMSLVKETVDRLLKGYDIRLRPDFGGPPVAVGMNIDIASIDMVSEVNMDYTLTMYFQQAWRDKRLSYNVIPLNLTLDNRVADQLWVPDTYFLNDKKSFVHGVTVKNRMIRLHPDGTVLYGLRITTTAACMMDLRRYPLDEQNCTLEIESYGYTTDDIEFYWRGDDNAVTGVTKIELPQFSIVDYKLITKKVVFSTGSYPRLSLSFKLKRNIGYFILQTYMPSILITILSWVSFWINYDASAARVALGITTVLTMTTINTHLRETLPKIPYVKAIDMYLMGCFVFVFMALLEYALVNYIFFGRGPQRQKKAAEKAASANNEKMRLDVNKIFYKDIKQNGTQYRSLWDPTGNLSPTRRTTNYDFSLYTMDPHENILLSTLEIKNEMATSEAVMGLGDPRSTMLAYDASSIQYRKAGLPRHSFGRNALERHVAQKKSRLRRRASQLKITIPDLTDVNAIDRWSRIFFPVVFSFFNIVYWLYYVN
T1 sequence (P18507 whole entry): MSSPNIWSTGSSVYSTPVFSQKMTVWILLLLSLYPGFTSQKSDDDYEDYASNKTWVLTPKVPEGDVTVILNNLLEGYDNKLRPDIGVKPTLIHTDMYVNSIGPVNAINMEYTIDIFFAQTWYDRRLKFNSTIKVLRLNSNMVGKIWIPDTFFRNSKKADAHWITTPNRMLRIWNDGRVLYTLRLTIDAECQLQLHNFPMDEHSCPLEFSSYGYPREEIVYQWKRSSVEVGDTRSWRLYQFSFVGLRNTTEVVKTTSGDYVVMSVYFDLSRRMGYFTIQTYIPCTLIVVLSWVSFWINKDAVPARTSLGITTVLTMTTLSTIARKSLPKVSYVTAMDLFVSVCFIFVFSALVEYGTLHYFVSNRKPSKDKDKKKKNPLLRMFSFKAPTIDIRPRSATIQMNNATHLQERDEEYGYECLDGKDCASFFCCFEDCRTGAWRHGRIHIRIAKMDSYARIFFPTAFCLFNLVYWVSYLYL
T1 sequence (P47869 whole entry): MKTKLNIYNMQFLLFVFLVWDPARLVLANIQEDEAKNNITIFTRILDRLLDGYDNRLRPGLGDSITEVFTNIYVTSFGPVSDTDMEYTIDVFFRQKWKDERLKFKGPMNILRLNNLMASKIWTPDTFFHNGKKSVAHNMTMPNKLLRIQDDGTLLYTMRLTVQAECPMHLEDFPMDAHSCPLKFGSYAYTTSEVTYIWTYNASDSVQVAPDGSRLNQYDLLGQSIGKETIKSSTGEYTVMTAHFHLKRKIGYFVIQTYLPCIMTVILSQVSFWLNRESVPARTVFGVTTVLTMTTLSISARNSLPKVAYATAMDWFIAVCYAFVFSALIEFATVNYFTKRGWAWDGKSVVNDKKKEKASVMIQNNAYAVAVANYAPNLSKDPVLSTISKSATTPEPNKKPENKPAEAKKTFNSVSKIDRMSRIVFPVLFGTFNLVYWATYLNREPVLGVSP
Chain of 5-hydroxytryptamine receptor 2A (P28223 whole entry): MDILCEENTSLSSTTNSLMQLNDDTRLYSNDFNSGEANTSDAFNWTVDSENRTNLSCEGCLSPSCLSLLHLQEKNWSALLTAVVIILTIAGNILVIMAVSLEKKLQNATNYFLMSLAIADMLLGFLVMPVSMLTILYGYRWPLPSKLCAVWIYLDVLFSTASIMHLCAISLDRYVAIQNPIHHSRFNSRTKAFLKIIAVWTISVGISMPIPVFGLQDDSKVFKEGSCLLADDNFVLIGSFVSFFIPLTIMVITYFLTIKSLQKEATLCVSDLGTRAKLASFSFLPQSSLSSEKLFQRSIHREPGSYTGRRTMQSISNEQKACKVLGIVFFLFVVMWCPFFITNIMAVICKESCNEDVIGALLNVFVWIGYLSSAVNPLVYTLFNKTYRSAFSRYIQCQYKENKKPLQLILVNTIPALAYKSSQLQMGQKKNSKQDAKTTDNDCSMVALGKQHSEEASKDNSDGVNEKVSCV

CN1CC(=O)N2[C@H](c3ccc4c(c3)OCO4)c3[nH]c4ccccc4c3C[C@@H]2C1=O
AC50 [1]: > 10 µM

C=C1CC[C@@]2(O)[C@H]3Cc4ccc(O)c5c4[C@@]2(CCN3CC2CC2)[C@H]1O5
AC50 [2]: > 30 µM | AC50 [3]: > 30 µM

COc1ccc2c(c1)c(CC(=O)OCC(=O)O)c(C)n2C(=O)c1ccc(Cl)cc1 [ACEMETACIN]
AC50 [4]: > 30 µM

Nc1ncnc2c1ncn2[C@@H]1O[C@H](COP(=O)(O)O)[C@@H](O)[C@H]1O [ADENOSINE PHOSPHATE]
AC50 [2]: > 30 µM | AC50 [3]: > 30 µM

CN1CCc2cccc3c2[C@H]1Cc1ccc(O)c(O)c1-3 [APOMORPHINE]
AC50 [5]: > 30 µM | AC50 [6]: > 30 µM | AC50 [7]: 1.27 µM | AC50 [1]: 0.964 µM

CC(C)c1c(C(=O)Nc2ccccc2)c(-c2ccccc2)c(-c2ccc(F)cc2)n1CC[C@@H](O)C[C@@H](O)CC(=O)O [ATORVASTATIN]
AC50 [5]: > 30 µM | AC50 [6]: > 30 µM

CCCCN1CCCCC1C(=O)Nc1c(C)cccc1C (stereo not drawn) [BUPIVACAINE]
AC50 [4]: > 30 µM

CCC(C(=O)O)c1ccc(CC(C)C)cc1 (stereo not drawn) [BUTIBUFEN]
AC50 [4]: > 30 µM

CCCCCOC(=O)Nc1nc(=O)n([C@@H]2O[C@H](C)[C@@H](O)[C@H]2O)cc1F [CAPECITABINE]
AC50 [2]: > 30 µM | AC50 [3]: > 30 µM

CCOc1cc(N)c([N+](=O)[O-])cc1C(=O)NC1CCN(CC2CC=CCC2)CC1 (stereo not drawn) [CINITAPRIDE]
AC50 [4]: > 30 µM | AC50 [7]: 0.0023 µM | AC50 [1]: 0.009 µM

CC(C)(Oc1ccc(C2CC2(Cl)Cl)cc1)C(=O)O (stereo not drawn) [CIPROFIBRATE]
AC50 [4]: > 30 µM

COC(=O)[C@H]1[C@@H](OC(=O)c2ccccc2)C[C@@H]2CC[C@H]1N2C [COCAINE]
AC50 [4]: > 30 µM

[H]/N=C(/N)c1ccc(NCc2nc3cc(C(=O)N(CCC(=O)O)c4ccccn4)ccc3n2C)cc1 [DABIGATRAN]
AC50 [4]: > 30 µM | AC50 [2]: > 30 µM | AC50 [3]: > 30 µM

CC(=O)O[C@@]12CO[C@@H]1C[C@H](O)[C@@]1(C)C(=O)[C@H](O)C3=C(C)[C@@H](OC(=O)[C@H](O)[C@@H](NC(=O)OC(C)(C)C)c4ccccc4)C[C@@](O)([C@@H](OC(=O)c4ccccc4)[C@H]21)C3(C)C [DOCETAXEL ANHYDROUS]
AC50 [8]: > 30 µM

CCCCCCCCCCCC[N+](C)(C)CCOc1ccccc1 [DOMIPHEN]
AC50 [1]: 0.14 µM

CN[C@@H](C)[C@H](O)c1ccccc1 [EPHEDRINE]
AC50 [5]: > 30 µM | AC50 [6]: > 30 µM | AC50 [7]: > 10 µM | AC50 [9]: > 10 µM

CCNC(C)Cc1cccc(C(F)(F)F)c1 (stereo not drawn) [FENFLURAMINE]
AC50 [5]: > 30 µM | AC50 [6]: > 30 µM

O=C1CN=C(c2ccccc2)c2cc(Cl)ccc2N1CC(F)(F)F [HALAZEPAM]
AC50 [4]: > 30 µM | AC50 [2]: > 30 µM | AC50 [3]: > 30 µM

CCC1(C2=CCCCCC2)C(=O)NC(=O)NC1=O [HEPTABARBITAL]
AC50 [8]: > 10 µM

C1=Cc2cccc(OCC3CNCCO3)c2C1 (stereo not drawn) [INDELOXAZINE]
AC50 [4]: > 30 µM

COC(=O)C1=C(C)NC(C)=C(C(=O)OC(C)C)C1c1cccc2nonc12 (stereo not drawn) [ISRADIPINE]
AC50 [8]: > 30 µM
